The text below walks through data of USRE32311E.

By MIC is commonly meant the smallest concentration in the dilution series that meets the test's criterion for growth inhibition. A high value points to weaker potency.

Converted amounts (≈) assume the structure as drawn. A value given as a limit tells only on which side of the number the result lay.

Series [1] relates to Streptococcus pyogenes C203. In words: agar-dilution MIC. Format: cell-based.
Protocol: (§1) In Table VII activity is measured by the minimal inhibitory concentration (MIC), i.e. the lowest concentration of compound at which growth of the microorganism is inhibited by the test compound.
A short description of another series: toxicity, LD50 in mice. The conditions noted are these: administered intravenously. It counts as in vivo.
Series [2] has as its system Streptococcus pneumoniae Park I. Format: cell-based. The conditions noted are these: agar dilution. (In general: In agar dilution, organisms are placed on agar that contains the substance at set levels.)
Protocol: as §1
Series [3] concerns Staphylococcus aureus V41. In words: agar-dilution MIC. It counts as cell-based. The conditions noted are these: Staphylococcus aureus V41, penicillin-resistant strain.
Protocol: as §1
Series [4] concerns Staphylococcus epidermidis EP11. In words: agar-dilution MIC. It counts as cell-based.
Protocol: as §1
The test system of series [5] is Streptococcus Group D 9960. Briefly: agar-dilution MIC. It counts as cell-based.
The test system of series [6] is Staphylococcus aureus X400. In words: agar-dilution MIC. It counts as cell-based. The note with it: Staphylococcus aureus X400, methicillin-resistant strain.
Protocol: as §1
In series [7] the test system is Staphylococcus epidermidis EP12. In words: agar-dilution MIC. Format: cell-based.
Protocol: as §1
For series [8], the system named is Staphylococcus aureus X1.1. In words: agar-dilution MIC. It counts as cell-based.
The subject of another series is Staphylococcus aureus. In words: experimental bacterial infection in mice, ED50. Format: in vivo. The conditions noted are these: two doses.
In the next series the test system is Streptococcus pyogenes. In words: experimental bacterial infection in mice, ED50. The conditions noted are these: two doses, oral. It counts as in vivo.
Series [9] deals with Streptococcus Group D X66. Briefly: agar-dilution MIC. Format: cell-based.
Protocol: as §1

With `CCCCCCCCCCCC(=O)N[C@@H](Cc1c[nH]c2ccccc12)C(=O)N[C@@H](Cc1c[nH]c2ccccc12)C(=O)N[C@H](CC(N)=O)C(=O)N[C@@H](CC(=O)O)C(=O)N[C@@H]1C(=O)NCC(=O)N[C@@H](CCCN)C(=O)N[C@@H](CC(=O)O)C(=O)N[C@H](C)C(=O)N[C@@H](CC(=O)O)C(=O)NCC(=O)N[C@H](CO)C(=O)N[C@@H]([C@H](C)CC(=O)O)C(=O)N[C@@H](CC(=O)c2ccccc2N)C(=O)O[C@@H]1C` [Compound 24], the MIC turned out to be 2 µg/mL (≈ 1.09 µM) in [1]; 1 µg/mL (≈ 0.545 µM) in series [2]; 2 µg/mL (≈ 1.09 µM) in series [3]; 4 µg/mL (≈ 2.18 µM) in series [4]; 4 µg/mL (≈ 2.18 µM) in series [5]; 4 µg/mL (≈ 2.18 µM) in series [6]. Besides, the MIC was determined as 4 µg/mL (≈ 2.18 µM) in [7], 1 µg/mL (≈ 0.545 µM) in [8] and 16 µg/mL (≈ 8.72 µM) in series [9]. Moreover, the “LD50 in Mice” value in “toxicity, LD50 in mice” is recorded as 450 mg/kg. The “ED50 Staphylococcus aureus Subcutaneous” value in the series with Staphylococcus aureus is reported as 2.3 mg/kg × 2. In the series with Streptococcus pyogenes, the “ED50 Streptococcus pyogenes Oral” value was > 200 mg/kg × 2.
For `CCCCCCCCCCCC(=O)Nc1cccc(C(=O)N[C@@H](Cc2c[nH]c3ccccc23)C(=O)N[C@H](CC(N)=O)C(=O)N[C@@H](CC(=O)O)C(=O)N[C@@H]2C(=O)NCC(=O)N[C@@H](CCCN)C(=O)N[C@@H](CC(=O)O)C(=O)N[C@H](C)C(=O)N[C@@H](CC(=O)O)C(=O)NCC(=O)N[C@H](CO)C(=O)N[C@@H]([C@H](C)CC(=O)O)C(=O)N[C@@H](CC(=O)c3ccccc3N)C(=O)O[C@@H]2C)c1` [Compound 5], the MIC in series [1] was 0.25 µg/mL (≈ 0.141 µM); in series [2], 0.25 µg/mL (≈ 0.141 µM); in series [3], 0.5 µg/mL (≈ 0.283 µM); in [4], 2 µg/mL (≈ 1.13 µM); in [5], 1 µg/mL (≈ 0.566 µM); in [6], 1 µg/mL (≈ 0.566 µM). The minimum inhibitory concentration (MIC) was 1 µg/mL (≈ 0.566 µM) in [7], 0.5 µg/mL (≈ 0.283 µM) in series [8] and 4 µg/mL (≈ 2.26 µM) in series [9]. In addition, in the series “toxicity, LD50 in mice”, the “LD50 in Mice” value worked out at 277 mg/kg. The “ED50 Staphylococcus aureus Subcutaneous” value with Staphylococcus aureus worked out at 1.67 mg/kg × 2. In addition, the “ED50 Streptococcus pyogenes Oral” value in the series with Streptococcus pyogenes is > 200 mg/kg × 2.
